Consider 12 molecules from paper PMC6820788, “Structural insights of human mitofusin-2 into mitochondrial fusion and CMT2A onset” (Nature Communications, 2019).

One data set deals with T1, mouse MFN2IM (mm) (Mus musculus, UniProt Q80U63).
T1 construct: gene Mfn2; internally truncated counterpart of human MFN2IM
T1 sequence (Q80U63 22-400 limits assumed): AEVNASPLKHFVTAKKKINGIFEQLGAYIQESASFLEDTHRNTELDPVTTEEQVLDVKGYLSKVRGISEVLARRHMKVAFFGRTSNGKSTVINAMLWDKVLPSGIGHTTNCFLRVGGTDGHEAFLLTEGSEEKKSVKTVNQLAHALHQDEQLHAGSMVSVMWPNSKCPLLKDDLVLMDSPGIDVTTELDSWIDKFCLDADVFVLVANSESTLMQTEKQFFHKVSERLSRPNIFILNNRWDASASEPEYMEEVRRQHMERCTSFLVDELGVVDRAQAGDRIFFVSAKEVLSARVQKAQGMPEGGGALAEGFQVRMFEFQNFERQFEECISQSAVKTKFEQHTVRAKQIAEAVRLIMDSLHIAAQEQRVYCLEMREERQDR
T1 sequence (Q80U63 706-757 limits assumed): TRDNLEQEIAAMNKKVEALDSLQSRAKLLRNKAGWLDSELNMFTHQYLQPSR
As to the kind of experiment: GTP hydrolysis, HPLC. The class given is biochemical. As to conditions: 37 °C, pH 7.5, 150 mM KCl, 5 mM MgCl2.

A further data set deals with T2, mouse MFN1IM (mm) (Mus musculus, UniProt Q811U4).
T2 construct: gene Mfn1; internally truncated counterpart of human MFN1IM
T2 sequence (Q811U4 1-364 limits assumed): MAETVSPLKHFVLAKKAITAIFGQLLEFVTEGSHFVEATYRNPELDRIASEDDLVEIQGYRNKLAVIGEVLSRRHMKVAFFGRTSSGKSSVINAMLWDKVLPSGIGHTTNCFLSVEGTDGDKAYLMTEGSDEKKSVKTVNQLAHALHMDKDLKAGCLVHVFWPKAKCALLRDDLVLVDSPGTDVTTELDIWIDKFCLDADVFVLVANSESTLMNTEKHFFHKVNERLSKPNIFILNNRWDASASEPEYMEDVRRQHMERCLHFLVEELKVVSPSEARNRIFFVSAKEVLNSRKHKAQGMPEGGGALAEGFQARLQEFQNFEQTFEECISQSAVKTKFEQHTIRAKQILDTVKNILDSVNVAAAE
T2 sequence (Q811U4 695-741 limits assumed): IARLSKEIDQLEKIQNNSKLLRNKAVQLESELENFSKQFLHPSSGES
The data set is described as follows: GTP hydrolysis, HPLC. As to conditions: 37 °C, pH 7.5, 150 mM KCl, 5 mM MgCl2. The class given is biochemical.

Data set [1] addresses T3, MFN2IM (Homo sapiens, UniProt O95140, DEL401-705).
T3 construct: gene MFN2; deletion of residues 1-21 and 401-705 (G domain + HD1); E. coli; N-terminal His6 cut by PreScission
T3 sequence (O95140 22-400): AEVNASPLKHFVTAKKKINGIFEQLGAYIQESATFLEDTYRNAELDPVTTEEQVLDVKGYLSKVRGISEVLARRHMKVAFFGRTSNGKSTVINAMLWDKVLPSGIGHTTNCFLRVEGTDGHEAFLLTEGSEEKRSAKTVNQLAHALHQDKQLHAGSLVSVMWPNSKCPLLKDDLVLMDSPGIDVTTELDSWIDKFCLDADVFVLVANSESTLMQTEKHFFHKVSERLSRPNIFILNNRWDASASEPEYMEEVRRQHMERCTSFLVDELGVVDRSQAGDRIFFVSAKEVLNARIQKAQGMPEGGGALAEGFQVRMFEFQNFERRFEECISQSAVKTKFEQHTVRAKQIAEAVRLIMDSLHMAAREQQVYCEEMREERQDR
T3 sequence (O95140 706-757): T1 sequence (Q80U63 706-757 limits assumed) with D3E, V16I, A18V, R25K
As to the kind of experiment: ITC. Type of data set: binding.

The target of data set [2] is T4, MFN1IM (Homo sapiens, UniProt Q8IWA4, DEL365-694).
T4 construct: gene MFN1; internally truncated (residues 365-694 removed, G domain + HD1); E. coli; His6 cut by PreScission
T4 sequence (Q8IWA4 1-364): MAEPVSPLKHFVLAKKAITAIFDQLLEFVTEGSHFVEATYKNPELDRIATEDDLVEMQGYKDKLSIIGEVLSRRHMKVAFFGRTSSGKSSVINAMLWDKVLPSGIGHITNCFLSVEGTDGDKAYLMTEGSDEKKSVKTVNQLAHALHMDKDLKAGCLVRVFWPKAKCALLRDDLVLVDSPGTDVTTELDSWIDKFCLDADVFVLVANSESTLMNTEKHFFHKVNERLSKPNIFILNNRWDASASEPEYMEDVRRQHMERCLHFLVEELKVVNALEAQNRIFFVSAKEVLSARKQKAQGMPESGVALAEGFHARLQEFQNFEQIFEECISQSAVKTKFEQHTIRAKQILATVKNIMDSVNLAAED
T4 sequence (Q8IWA4 695-741): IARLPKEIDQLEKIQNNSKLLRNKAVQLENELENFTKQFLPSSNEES
As to the kind of experiment: ITC. Type of data set: binding.

Data set [3] deals with T4, MFN1IM. The data set is described as follows: stopped-flow fluorescence, nucleotide exchange. The conditions noted are these: labelled compound; protein preincubated with GDP; pH 7.5, 150 mM KCl, 5 mM MgCl2. The class given is binding.
The target of data set [4] is T3, MFN2IM. The data set is described as follows: stopped-flow fluorescence, nucleotide exchange. As to conditions: labelled compound; protein preincubated with GDP; pH 7.5, 150 mM KCl, 5 mM MgCl2. Type of data set: binding.
Data set [5] concerns the target T5, MFN1IM (Homo sapiens, UniProt Q8IWA4, I108T/DEL365-694).
T5 construct: gene MFN1; internally truncated (residues 365-694 removed, G domain + HD1); E. coli; His6 cut by PreScission
T5 sequence (Q8IWA4 1-364 I108T): T4 sequence (Q8IWA4 1-364) with I108T
T5 sequence (Q8IWA4 695-741): T4 sequence (Q8IWA4 695-741)
The data set is described as follows: stopped-flow fluorescence, displacement by unlabeled GDP. The class given is binding. The conditions noted are these: labelled compound; pH 7.5, 150 mM KCl, 5 mM MgCl2.

Data set [6] addresses T6, MFN2IM (Homo sapiens, UniProt O95140, T129I/DEL401-705).
T6 construct: gene MFN2; deletion of residues 1-21 and 401-705 (G domain + HD1); E. coli; N-terminal His6 cut by PreScission
T6 sequence (O95140 22-400 T129I): T3 sequence (O95140 22-400) with T108I
T6 sequence (O95140 706-757): T1 sequence (Q80U63 706-757 limits assumed) with D3E, V16I, A18V, R25K
Described as above. Type of data set: binding. The conditions noted are these: labelled compound; pH 7.5, 150 mM KCl, 5 mM MgCl2.

Data set [7] deals with the molecule itself. The data set is described as follows: SEC-RALS; analytical gel filtration (Superdex 200 10/300) coupled to right-angle light scattering; 50 μM protein incubated with 500 μM GTP or GDP∙BeF3− for 2 h at room temperature; 20 mM HEPES pH 7.5, 150 mM KCl, 5 mM MgCl2, 1 mM DTT. (In general: SEC sorts molecules by how far they enter the pores of the column.)
For a further data set, the target named is T7, MBP-fused MFN2IM (human, UniProt O95140 22-757, deletions of residues 1–21 and 401–705).
T7 construct: human mitofusin-2 (MFN2) with residues 1-21 and 401-705 deleted (MFN2IM); also called MBP-tagged MFN2IM; wild-type MFN2IM (native PAGE)
T7 sequence (looked up): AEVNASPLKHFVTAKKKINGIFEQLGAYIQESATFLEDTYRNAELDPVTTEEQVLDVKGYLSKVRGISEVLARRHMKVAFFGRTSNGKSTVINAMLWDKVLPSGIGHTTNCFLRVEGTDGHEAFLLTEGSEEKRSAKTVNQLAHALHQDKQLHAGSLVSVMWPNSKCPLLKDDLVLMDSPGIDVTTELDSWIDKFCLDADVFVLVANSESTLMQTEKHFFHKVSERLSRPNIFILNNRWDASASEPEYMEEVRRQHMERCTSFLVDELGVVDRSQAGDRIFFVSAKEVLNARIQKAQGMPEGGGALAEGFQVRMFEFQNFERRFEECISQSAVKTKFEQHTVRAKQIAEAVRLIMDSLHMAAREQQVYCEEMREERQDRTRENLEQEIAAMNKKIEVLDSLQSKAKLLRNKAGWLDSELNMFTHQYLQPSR
The data set is described as follows: native gel or EMSA; blue native PAGE at 4 °C; MBP-tagged MFN1IM/MFN2IM mixed with 10 μM partner and tenfold GDP∙BeF3−, 2 h at room temperature; Coomassie stain. As to conditions: both partners purified. In general terms: In EMSA bound probe runs differently from free probe, usually more slowly.

Changes are numbered by the printed parent chain. Names and notes keep the numbering of the source.

As to `Nc1nc2c(ncn2[C@@H]2O[C@H](COP(=O)(O)OP(=O)(O)OP(=O)(O)O)[C@@H](O)[C@H]2O)c(=O)[nH]1` [GTP], the GTP turnover rate entry on mouse MFN2IM (mm) is “Mouse MFN1IM and MFN2IM showed weak GTPase hydrolysis”; at mouse MFN1IM (mm) it was “Mouse MFN1IM and MFN2IM showed weak GTPase hydrolysis”.

Regarding `Nc1nc2c(ncn2[C@@H]2O[C@H](COP(=O)(O)OP(=O)(O)OP(O)(O)=S)[C@@H](O)[C@H]2O)c(=O)[nH]1` [GTPγS], the figures for the Kd on MFN2IM [1] and on MFN1IM [2] were 3.3 ± 0.52 µM and 83 ± 5.34 µM, respectively. For `CNc1ccccc1C(=O)O[C@H]1[C@@H](O)[C@H](n2cnc3c(=O)[nH]c(N)nc32)O[C@@H]1COP(=O)(O)OP(=O)(O)OP(=O)(O)O` [mant-GTP], the “stopped-flow fluorescence, nucleotide exchange” value on MFN1IM [3] was “G domain dimerization greatly reduced the mant-GTP reload rate of both MFN2IM and MFN1IM”; on MFN2IM [4] it was “MFN2IM bound more mant-GTP over time due to a higher affinity to GTP”. `Nc1nc2c(ncn2[C@@H]2O[C@H](COP(=O)(O)OP(=O)(O)O)[C@@H](O)[C@H]2O)c(=O)[nH]1` [GDP]: the Kd on MFN2IM [1] worked out at 14.4 ± 0.63 µM; at MFN1IM [2], 217 ± 23.8 µM. On to `CNc1ccccc1C(=O)O[C@H]1[C@@H](O)[C@H](n2cnc3c(=O)[nH]c(N)nc32)O[C@@H]1COP(=O)(O)OP(=O)(O)O` [mant-GDP], for which the GDP off-rate entry is “GDP off-rates of MFN2IM(T129I) and MFN1IM(I108T)” on MFN1IM [5]; “GDP off-rates of MFN2IM(T129I) and MFN1IM(I108T)” on MFN2IM [6].

B1: MFN2IM (modified human MFN2 construct with deletions of residues 1–21 and 401–705) (domain or fragment, UniProt O95140 22-757, looked up)
chain: T7 sequence (looked up)
notes: human mitofusin-2 (MFN2) with residues 1-21 and 401-705 deleted (MFN2IM); Theoretical molecular mass 52.6 kDa; also called truncated human MFN2; wild-type MFN2IM; source: E. coli Rosetta (DE3), purified (Ni-NTA, His6-tag removed with PreScission protease, second Ni-NTA, gel filtration); not shown: His6, N-terminal, cleaved
Consider B1, for which the “stoichiometry N” value in data set [7] came out at 2.

B2: MFN2IM R364P (CMT2A-related mutant) (domain or fragment, human, UniProt O95140 22-757, looked up)
chain: T7 sequence (looked up) with R343P
notes: human mitofusin-2 (MFN2) with residues 1-21 and 401-705 deleted (MFN2IM), CMT2A-related point mutant; source: E. coli Rosetta (DE3), purified; not shown: His6, N-terminal, cleaved
In the case of B2, the binding result in [7] was “binds”.

B3: MFN2IM R94Q (CMT2A-related mutant) (domain or fragment, human, UniProt O95140 22-757, looked up)
chain: T7 sequence (looked up) with R73Q
notes: as for B2
Consider B3, for which the binding result in data set [7] is listed as “binds”.

B4: MFN2IM R364W (CMT2A-related mutant) (domain or fragment, human, UniProt O95140 22-757, looked up)
chain: T7 sequence (looked up) with R343W
notes: as for B2
On to B4, for which the binding result in data set [7] is recorded as “binds”.

B5: MFN2IM L248V (CMT2A-related mutant) (domain or fragment, human, UniProt O95140 22-757, looked up)
chain: T7 sequence (looked up) with L227V
notes: as for B2
As for B5, the binding result in [7] is recorded as “binds”.

B6: MFN2IM P251L (CMT2A-related mutant) (domain or fragment, human, UniProt O95140 22-757, looked up)
chain: T7 sequence (looked up) with P230L
notes: as for B2
Consider B6, for which the binding result in data set [7] was “binds”.

B7: MFN2IM R94W (CMT2A-related mutant) (domain or fragment, human, UniProt O95140 22-757, looked up)
chain: T7 sequence (looked up) with R73W
notes: as for B2
Take B7: the binding result with MBP-fused MFN2IM is “binds”.

By Kd is commonly meant the equilibrium constant for the complex coming apart. One may read the stoichiometry N as the number of molecules, sites or subunits per partner or assembly.
